Results published in PubChem BioAssay (NCI).
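Test compounds were applied to cells in 96-well plates for 48 hours at 5 doses. Here, GI50 denotes the concentration required for 50% inhibition of growth. TGI is the concentration that stops growth completely.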

test system: UO-31 renal; test: inhibition of tumour cell growth, NCI panel, 48 h

For O=C(CCN(C(=O)O)S(=O)(=O)c1ccc(NC(=O)c2ccccc2)cc1)Nc1ccccc1, which TGI is on record?
Its TGI is > 100 µM.

For N#CN/C(N)=N/CO, which TGI is on record?
The TGI was > 100 µM.

test system: MDA-MB-231 breast; test: inhibition of tumour cell growth, NCI panel, 48 h

Which TGI does the source give for COC(=O)C1=C(OC(=O)/C(=C/c2ccc(Cl)cc2)c2ccc(Cl)cc2)C(C(=O)OC)[C@@]2(O)[C@@H](C(=O)OC)[C@H](C)C[C@@H]1[C@@H]2C(=O)OC (stereo partly drawn) here?
The TGI was > 100 µM.

test system: RXF-631 renal; test: inhibition of tumour cell growth, NCI panel, 48 h

CC(C)CCC1CC2C(=O)N(c3ccccc3)C(=O)C2c2[nH]c3ccccc3c21 (stereo not drawn) was tested. Which TGI did it give?
Its TGI is 13.8 µM.

How did the TGI turn out when CCCCCCCCCCCCCC(=O)OCC(C[As](=O)(O)O)OC(=O)CCCCCCCCCCCCC (stereo not drawn) was run?
Its TGI is > 100 µM.

For O=C(CCN(C(=O)O)S(=O)(=O)c1ccc(NC(=O)c2ccccc2)cc1)Nc1ccccc1, which TGI is on record?
Its TGI is > 100 µM.

Which TGI does the source give for N#CN/C(N)=N/CO here?
The TGI was > 100 µM.

test system: CCRF-CEM leukemia; test: inhibition of tumour cell growth, NCI panel, 48 h

N.N.N.N.O=C([O-])CCl.O=C([O-])CCl.[Co+3].[O-][Cl+3]([O-])([O-])[O-] was tested. Which GI50 did it give?
Its GI50 is > 100 µM.

And the TGI?
Its TGI is > 100 µM.

How did the TGI turn out when COC(=O)C1=C(OC(=O)/C(=C/c2ccc(Cl)cc2)c2ccc(Cl)cc2)C(C(=O)OC)[C@@]2(O)[C@@H](C(=O)OC)[C@H](C)C[C@@H]1[C@@H]2C(=O)OC (stereo partly drawn) was run?
Its TGI is > 100 µM.

How did the TGI turn out when CC(C)CCC1CC2C(=O)N(c3ccccc3)C(=O)C2c2[nH]c3ccccc3c21 (stereo not drawn) was run?
Its TGI is 16.8 µM.

With CCCCCCCCCCCCCC(=O)OCC(C[As](=O)(O)O)OC(=O)CCCCCCCCCCCCC (stereo not drawn) as the compound, how does the TGI read?
Its TGI is > 100 µM.

With O=C(CCN(C(=O)O)S(=O)(=O)c1ccc(NC(=O)c2ccccc2)cc1)Nc1ccccc1 as the compound, how does the TGI read?
Its TGI is > 81.2 µM.

Which TGI does the source give for N#CN/C(N)=N/CO here?
The TGI was > 100 µM.

test system: SN12C renal; test: inhibition of tumour cell growth, NCI panel, 48 h

Which GI50 does the source give for N.N.N.N.O=C([O-])CCl.O=C([O-])CCl.[Co+3].[O-][Cl+3]([O-])([O-])[O-] here?
Its GI50 is > 100 µM.

What about the TGI of the same compound?
The TGI was > 100 µM.

COC(=O)C1=C(OC(=O)/C(=C/c2ccc(Cl)cc2)c2ccc(Cl)cc2)C(C(=O)OC)[C@@]2(O)[C@@H](C(=O)OC)[C@H](C)C[C@@H]1[C@@H]2C(=O)OC (stereo partly drawn) was tested. Which TGI did it give?
Its TGI is > 100 µM.

With CC(C)CCC1CC2C(=O)N(c3ccccc3)C(=O)C2c2[nH]c3ccccc3c21 (stereo not drawn) as the compound, how does the TGI read?
The TGI was 15.4 µM.

With CCCCCCCCCCCCCC(=O)OCC(C[As](=O)(O)O)OC(=O)CCCCCCCCCCCCC (stereo not drawn) as the compound, how does the TGI read?
The TGI was > 100 µM.

O=C(CCN(C(=O)O)S(=O)(=O)c1ccc(NC(=O)c2ccccc2)cc1)Nc1ccccc1 was tested. Which TGI did it give?
Its TGI is > 100 µM.

How did the TGI turn out when N#CN/C(N)=N/CO was run?
The TGI was > 100 µM.

test system: PC-3 prostate; test: inhibition of tumour cell growth, NCI panel, 48 h

COC(=O)C1=C(OC(=O)/C(=C/c2ccc(Cl)cc2)c2ccc(Cl)cc2)C(C(=O)OC)[C@@]2(O)[C@@H](C(=O)OC)[C@H](C)C[C@@H]1[C@@H]2C(=O)OC (stereo partly drawn) was tested. Which TGI did it give?
The TGI was > 100 µM.

test system: DU-145 prostate; test: inhibition of tumour cell growth, NCI panel, 48 h

Which TGI does the source give for COC(=O)C1=C(OC(=O)/C(=C/c2ccc(Cl)cc2)c2ccc(Cl)cc2)C(C(=O)OC)[C@@]2(O)[C@@H](C(=O)OC)[C@H](C)C[C@@H]1[C@@H]2C(=O)OC (stereo partly drawn) here?
The TGI was > 100 µM.

test system: K-562 leukemia; test: inhibition of tumour cell growth, NCI panel, 48 h

N.N.N.N.O=C([O-])CCl.O=C([O-])CCl.[Co+3].[O-][Cl+3]([O-])([O-])[O-] was tested. Which GI50 did it give?
Its GI50 is > 100 µM.

And the TGI?
Its TGI is > 100 µM.

How did the TGI turn out when COC(=O)C1=C(OC(=O)/C(=C/c2ccc(Cl)cc2)c2ccc(Cl)cc2)C(C(=O)OC)[C@@]2(O)[C@@H](C(=O)OC)[C@H](C)C[C@@H]1[C@@H]2C(=O)OC (stereo partly drawn) was run?
The TGI was > 100 µM.

Which TGI does the source give for CC(C)CCC1CC2C(=O)N(c3ccccc3)C(=O)C2c2[nH]c3ccccc3c21 (stereo not drawn) here?
The TGI was 10.7 µM.

Which TGI does the source give for CCCCCCCCCCCCCC(=O)OCC(C[As](=O)(O)O)OC(=O)CCCCCCCCCCCCC (stereo not drawn) here?
Its TGI is > 100 µM.

With O=C(CCN(C(=O)O)S(=O)(=O)c1ccc(NC(=O)c2ccccc2)cc1)Nc1ccccc1 as the compound, how does the TGI read?
The TGI was > 83.2 µM.

For N#CN/C(N)=N/CO, which TGI is on record?
Its TGI is > 100 µM.

test system: DLD-1 colon; test: inhibition of tumour cell growth, NCI panel, 48 h

How did the GI50 turn out when N.N.N.N.O=C([O-])CCl.O=C([O-])CCl.[Co+3].[O-][Cl+3]([O-])([O-])[O-] was run?
The GI50 was > 100 µM.

And the TGI?
The TGI was > 100 µM.

For CC(C)CCC1CC2C(=O)N(c3ccccc3)C(=O)C2c2[nH]c3ccccc3c21 (stereo not drawn), which TGI is on record?
Its TGI is 15 µM.

How did the TGI turn out when CCCCCCCCCCCCCC(=O)OCC(C[As](=O)(O)O)OC(=O)CCCCCCCCCCCCC (stereo not drawn) was run?
The TGI was > 100 µM.

Which TGI does the source give for O=C(CCN(C(=O)O)S(=O)(=O)c1ccc(NC(=O)c2ccccc2)cc1)Nc1ccccc1 here?
Its TGI is > 100 µM.

N#CN/C(N)=N/CO was tested. Which TGI did it give?
The TGI was > 87.8 µM.

test system: HCT-116 colon; test: inhibition of tumour cell growth, NCI panel, 48 h

For N.N.N.N.O=C([O-])CCl.O=C([O-])CCl.[Co+3].[O-][Cl+3]([O-])([O-])[O-], which GI50 is on record?
Its GI50 is > 100 µM.

And the TGI?
Its TGI is > 100 µM.

Which TGI does the source give for COC(=O)C1=C(OC(=O)/C(=C/c2ccc(Cl)cc2)c2ccc(Cl)cc2)C(C(=O)OC)[C@@]2(O)[C@@H](C(=O)OC)[C@H](C)C[C@@H]1[C@@H]2C(=O)OC (stereo partly drawn) here?
The TGI was > 100 µM.

With CCCCCCCCCCCCCC(=O)OCC(C[As](=O)(O)O)OC(=O)CCCCCCCCCCCCC (stereo not drawn) as the compound, how does the TGI read?
The TGI was > 100 µM.

For O=C(CCN(C(=O)O)S(=O)(=O)c1ccc(NC(=O)c2ccccc2)cc1)Nc1ccccc1, which TGI is on record?
The TGI was > 69.5 µM.

Which TGI does the source give for N#CN/C(N)=N/CO here?
The TGI was > 64.4 µM.

test system: HT29 colon; test: inhibition of tumour cell growth, NCI panel, 48 h

Which results are given for N.N.N.N.O=C([O-])CCl.O=C([O-])CCl.[Co+3].[O-][Cl+3]([O-])([O-])[O-]?
GI50: > 100 µM; TGI: > 100 µM

For COC(=O)C1=C(OC(=O)/C(=C/c2ccc(Cl)cc2)c2ccc(Cl)cc2)C(C(=O)OC)[C@@]2(O)[C@@H](C(=O)OC)[C@H](C)C[C@@H]1[C@@H]2C(=O)OC (stereo partly drawn), which TGI is on record?
Its TGI is > 100 µM.

With CC(C)CCC1CC2C(=O)N(c3ccccc3)C(=O)C2c2[nH]c3ccccc3c21 (stereo not drawn) as the compound, how does the TGI read?
The TGI was 11 µM.

CCCCCCCCCCCCCC(=O)OCC(C[As](=O)(O)O)OC(=O)CCCCCCCCCCCCC (stereo not drawn) was tested. Which TGI did it give?
The TGI was > 100 µM.

How did the TGI turn out when O=C(CCN(C(=O)O)S(=O)(=O)c1ccc(NC(=O)c2ccccc2)cc1)Nc1ccccc1 was run?
Its TGI is > 100 µM.
